Earlier results, collected in US20240165126A1 (TONIX PHARMACEUTICALS HOLDING CORP., priority 2021, published 2024).

Details: orally administered; extensive first pass hepatic metabolism; Smith et al. 2012

C=CCN1CC[C@]23c4c5ccc(O)c4O[C@H]2C(=O)CC[C@@]3(O)[C@H]1C5 [Naloxone]
systemic bioavailability: ≤ 2%
